Consider 14 compounds from patent US8410144B2, “Substituted indolo-pyridinone compounds” (ArQule, Inc., priority 2009, dated 2013).

One series deals with DLD-1. As to the kind of experiment: MTS assay, DLD-1 cells. The series is classed as cell-based. The settings on record: Homo sapiens, 72 hours, read-out: DLD-1, MTS cell kill % inhibition. The method, boiled down: (§1)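 First, seed 3000 cells per well in low-serum (1% FBS) DMEM and culture 18 h. Next, add compounds prepared at 300× in DMSO and diluted 1:40 in DMEM; incubate 72 h. Finally, add MTS/PMS for 4 h and measure absorbance at 492 nm.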
Background: Tetrazolium assays rely on reduction of a dye to a coloured formazan, in cell work by metabolically active cells.

In a further series the test system is KATO III. As to the kind of experiment: MTS assay, KATO III cells. The series is classed as cell-based. The settings on record: Homo sapiens, 72 hours, read-out: KATO III, MTS cell kill % inhibition. The method, boiled down: as §1
In another series the test system is MDA-MB-231. As to the kind of experiment: MTS assay, MDA-MB-231 cells. The series is classed as cell-based. The conditions noted are these: Homo sapiens, 72 hours, read-out: MDA-MB-231, MTS cell kill % inhibition. In short, it runs like this: as §1
For another series, the system named is NCI-H1299. Nature of the series: MTS assay, NCI-H1299 cells. In kind it is cell-based. The settings on record: Homo sapiens, 72 hours, read-out: NCI-H1299, MTS cell kill % inhibition. In short, it runs like this: as §1
For the next series, the target named is IGF-1R (Homo sapiens, UniProt P08069). Nature of the series: IGFR1 activity assay (ELISA). In kind it is biochemical. The settings on record: read-out: IGF-1R, PCT INH (30 μM), ELISA. In short, it runs like this:
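IGF1R (0.33 ng/μL final) phosphorylating Pyk-2 (0.05 ng/μL final) in buffer with 12.5 μM ATP, 10 mM MgCl2, 1 h room temperature. Product captured on streptavidin plates, detected with anti-phosphotyrosine and alkaline phosphatase secondary antibody, Attophos fluorescent readout.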
(In general: ELISA stands for enzyme-linked immunosorbent assay.)

For orientation: melting point means the temperature, or range, at which the solid turns liquid.

Chain of IGF-1R (P08069 31-1367): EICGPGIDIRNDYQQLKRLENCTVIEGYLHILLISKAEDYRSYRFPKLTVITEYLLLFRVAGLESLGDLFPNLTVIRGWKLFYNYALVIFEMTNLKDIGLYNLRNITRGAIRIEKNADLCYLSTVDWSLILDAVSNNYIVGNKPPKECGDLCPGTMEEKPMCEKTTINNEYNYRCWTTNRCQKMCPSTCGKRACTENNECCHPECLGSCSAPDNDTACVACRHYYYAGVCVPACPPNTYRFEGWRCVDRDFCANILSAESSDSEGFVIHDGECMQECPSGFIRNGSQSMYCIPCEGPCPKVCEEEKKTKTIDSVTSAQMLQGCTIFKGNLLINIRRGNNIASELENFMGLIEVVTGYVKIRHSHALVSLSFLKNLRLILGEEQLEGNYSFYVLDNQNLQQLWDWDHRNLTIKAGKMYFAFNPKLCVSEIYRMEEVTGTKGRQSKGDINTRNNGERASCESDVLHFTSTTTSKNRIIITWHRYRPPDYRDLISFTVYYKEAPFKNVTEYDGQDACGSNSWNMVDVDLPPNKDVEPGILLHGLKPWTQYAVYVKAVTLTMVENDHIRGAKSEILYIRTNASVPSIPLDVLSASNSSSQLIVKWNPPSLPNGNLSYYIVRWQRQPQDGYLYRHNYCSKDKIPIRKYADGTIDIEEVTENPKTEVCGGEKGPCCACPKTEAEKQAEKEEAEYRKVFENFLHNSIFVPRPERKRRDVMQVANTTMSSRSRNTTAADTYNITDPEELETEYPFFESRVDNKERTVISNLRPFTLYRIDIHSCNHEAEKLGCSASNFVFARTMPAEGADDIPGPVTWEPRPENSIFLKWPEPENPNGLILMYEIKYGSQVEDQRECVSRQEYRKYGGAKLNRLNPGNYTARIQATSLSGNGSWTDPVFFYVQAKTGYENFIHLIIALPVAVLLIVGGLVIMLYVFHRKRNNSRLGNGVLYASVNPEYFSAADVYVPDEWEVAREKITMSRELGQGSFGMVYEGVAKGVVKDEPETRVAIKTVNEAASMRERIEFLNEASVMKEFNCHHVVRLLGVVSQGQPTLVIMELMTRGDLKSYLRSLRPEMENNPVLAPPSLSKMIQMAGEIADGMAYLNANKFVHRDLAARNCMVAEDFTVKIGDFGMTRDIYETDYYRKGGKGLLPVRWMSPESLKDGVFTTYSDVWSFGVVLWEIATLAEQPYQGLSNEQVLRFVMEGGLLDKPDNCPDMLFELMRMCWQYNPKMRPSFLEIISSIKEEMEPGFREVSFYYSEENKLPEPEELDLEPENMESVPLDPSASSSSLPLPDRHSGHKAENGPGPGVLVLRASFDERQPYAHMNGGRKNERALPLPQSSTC

In turn, `O=C(c1ccc2[nH]c(-c3ccc[nH]c3=O)c(-c3ccc(-c4ccccc4)cc3)c2c1)N1CCN(c2cnccn2)CC1` [Compound 45, 3-{3-biphenyl-4-yl-5-[(4-pyrazin-2-ylpiperazin-1-yl)carbonyl]-1H-indol-2-yl}pyridin-2(1H)-one] returned a melting point of 289 to 296 °C. Also, the inhibition at 10 µM with DLD-1 was in the range of 50 to 79%. The inhibition at 10 µM with KATO III was in the range of 80 to 100%. Besides, the inhibition at 10 µM in the series with MDA-MB-231 is 80 to 100%. For the same compound, in the series on NCI-H1299, the inhibition at 10 µM was 80 to 100%. For the same compound, the inhibition at 30 µM at IGF-1R lay in the range of 50 to 79%.

With `O=C(NCCOc1ccccc1)c1ccc2[nH]c(-c3ccc[nH]c3=O)c(-c3ccc(-c4ccccc4)cc3)c2c1` [Compound 51, 3-biphenyl-4-yl-2-(2-oxo-1,2-dihydropyridin-3-yl)-N-(2-phenoxyethyl)-1H-indole-5-carboxamide], the melting point lay within 147 to 153 °C. In addition, the inhibition at 10 µM in the series on DLD-1 is less than 50%. For the same compound, the inhibition at 10 µM with KATO III is less than 50%. In addition, in the series on MDA-MB-231, the inhibition at 10 µM was 50 to 79%. The inhibition at 10 µM in the series with NCI-H1299 is less than 50%. On IGF-1R, the inhibition at 30 µM is less than 50%.

In turn, `CN(C)CCCNCc1ccc2[nH]c(-c3ccc[nH]c3=O)c(-c3ccc(-c4ccccc4)cc3)c2c1` [Compound 54, 3-[3-biphenyl-4-yl-5-({[3-(dimethylamino)propyl]amino}methyl)-1H-indol-2-yl]pyridin-2(1H)-one] gave a melting point of 160 to 166 °C. Besides, the inhibition at 10 µM in the series with DLD-1 was in the range of 50 to 79%. Besides, in the series on KATO III, the inhibition at 10 µM is less than 50%. In the series with MDA-MB-231, the inhibition at 10 µM is 50 to 79%. In addition, in the series with NCI-H1299, the inhibition at 10 µM was less than 50%. For the same compound, the inhibition at 30 µM at IGF-1R was less than 50%.

Consider `O=C(NCCCN1CCOCC1)c1ccc2[nH]c(-c3ccc[nH]c3=O)c(Br)c2c1` [Compound 56, 3-bromo-N-(3-morpholin-4-ylpropyl)-2-(2-oxo-1,2-dihydropyridin-3-yl)-1H-indole-5-carboxamide], for which the melting point fell in the range of 138 to 142 °C. For the same compound, in the series on DLD-1, the inhibition at 10 µM is less than 50%. In the series on KATO III, the inhibition at 10 µM was less than 50%. In the series with MDA-MB-231, the inhibition at 10 µM is less than 50%. For the same compound, the inhibition at 10 µM in the series with NCI-H1299 is less than 50%. Further, the inhibition at 30 µM at IGF-1R was in the range of 80 to 100%.

On to `O=C(NCCCN1CCOCC1)c1ccc2[nH]c(-c3ccc[nH]c3=O)c(-c3ccc(Oc4ccccc4)cc3)c2c1` [Compound 57, N-(3-morpholin-4-ylpropyl)-2-(2-oxo-1,2-dihydropyridin-3-yl)-3-(4-phenoxyphenyl)-1H-indole-5-carboxamide], for which the melting point is 121 to 123 °C. Also, the inhibition at 10 µM in the series on DLD-1 fell in the range of 80 to 100%. For the same compound, the inhibition at 10 µM with KATO III fell in the range of 80 to 100%. For the same compound, in the series on MDA-MB-231, the inhibition at 10 µM fell in the range of 80 to 100%. In the series with NCI-H1299, the inhibition at 10 µM lay in the range of 80 to 100%. The inhibition at 30 µM at IGF-1R lay in the range of 80 to 100%.

`O=C(NCCCN1CCOCC1)c1ccc2[nH]c(-c3ccc[nH]c3=O)c(-c3ccc(Cl)c(Cl)c3)c2c1` [Compound 59, 3-(3,4-dichlorophenyl)-N-(3-morpholin-4-ylpropyl)-2-(2-oxo-1,2-dihydropyridin-3-yl)-1H-indole-5-carboxamide] came in with a melting point of 135 to 138 °C. Also, in the series with DLD-1, the inhibition at 10 µM was in the range of 50 to 79%. Moreover, the inhibition at 10 µM with KATO III lay within 80 to 100%. Further, the inhibition at 10 µM in the series on MDA-MB-231 was less than 50%. For the same compound, the inhibition at 10 µM with NCI-H1299 lay within 50 to 79%. In addition, the inhibition at 30 µM on IGF-1R lay within 50 to 79%.

For `CCc1ccc(-c2c(-c3ccc[nH]c3=O)[nH]c3ccc(C(=O)NCCCN4CCOCC4)cc23)cc1` [Compound 65, 3-(4-ethylphenyl)-N-(3-morpholin-4-ylpropyl)-2-(2-oxo-1,2-dihydropyridin-3-yl)-1H-indole-5-carboxamide], the melting point lay in the range of 143 to 145 °C. In the series with DLD-1, the inhibition at 10 µM fell in the range of 80 to 100%. For the same compound, the inhibition at 10 µM in the series on KATO III was 80 to 100%. In addition, the inhibition at 10 µM with MDA-MB-231 lay in the range of 50 to 79%. In the series with NCI-H1299, the inhibition at 10 µM lay within 80 to 100%. Also, the inhibition at 30 µM at IGF-1R lay within 80 to 100%.

With `CC(C)Oc1ccc(-c2c(-c3ccc[nH]c3=O)[nH]c3ccc(C(=O)NCCCN4CCOCC4)cc23)cc1` [Compound 66, 3-(4-isopropoxyphenyl)-N-(3-morpholin-4-ylpropyl)-2-(2-oxo-1,2-dihydropyridin-3-yl)-1H-indole-5-carboxamide], the melting point is 140 to 143 °C. Moreover, the inhibition at 10 µM with DLD-1 fell in the range of 50 to 79%. The inhibition at 10 µM in the series on KATO III was in the range of 80 to 100%. Also, the inhibition at 10 µM in the series with MDA-MB-231 lay in the range of 80 to 100%. Moreover, the inhibition at 10 µM with NCI-H1299 was in the range of 80 to 100%. In addition, the inhibition at 30 µM on IGF-1R lay in the range of 80 to 100%.

`Cc1cc(C)cc(-c2c(-c3ccc[nH]c3=O)[nH]c3ccc(C(=O)NCCCN4CCOCC4)cc23)c1` [Compound 70, 3-(3,5-dimethylphenyl)-N-(3-morpholin-4-ylpropyl)-2-(2-oxo-1,2-dihydropyridin-3-yl)-1H-indole-5-carboxamide] gave a melting point of 115 to 120 °C. The inhibition at 10 µM in the series with DLD-1 was in the range of 80 to 100%. The inhibition at 10 µM in the series on KATO III was in the range of 80 to 100%. Moreover, the inhibition at 10 µM in the series with MDA-MB-231 was 80 to 100%. For the same compound, the inhibition at 10 µM in the series on NCI-H1299 fell in the range of 80 to 100%. Moreover, the inhibition at 30 µM at IGF-1R was 80 to 100%.

`Cc1ccc(-c2c(-c3ccc[nH]c3=O)[nH]c3ccc(C(=O)NCCCN4CCOCC4)cc23)cc1` [Compound 72, 3-(4-methylphenyl)-N-(3-morpholin-4-ylpropyl)-2-(2-oxo-1,2-dihydropyridin-3-yl)-1H-indole-5-carboxamide] came in with a melting point of 152 to 154 °C. Further, the inhibition at 10 µM with DLD-1 was 50 to 79%. In addition, the inhibition at 10 µM in the series with KATO III was in the range of 80 to 100%. Further, in the series with MDA-MB-231, the inhibition at 10 µM was less than 50%. For the same compound, the inhibition at 10 µM in the series with NCI-H1299 was 80 to 100%. In addition, at IGF-1R, the inhibition at 30 µM fell in the range of 80 to 100%.

`Cc1cccc(-c2c(-c3ccc[nH]c3=O)[nH]c3ccc(C(=O)NCCCN4CCOCC4)cc23)c1` [Compound 78, 3-(3-methylphenyl)-N-(3-morpholin-4-ylpropyl)-2-(2-oxo-1,2-dihydropyridin-3-yl)-1H-indole-5-carboxamide] came in with a melting point of 120 to 122 °C. In addition, the inhibition at 10 µM in the series on DLD-1 fell in the range of 50 to 79%. Also, in the series on KATO III, the inhibition at 10 µM was less than 50%. Moreover, the inhibition at 10 µM with MDA-MB-231 is less than 50%. Further, the inhibition at 10 µM with NCI-H1299 lay within 50 to 79%. At IGF-1R, the inhibition at 30 µM is 80 to 100%.

Regarding `CCOc1ccc(-c2c(-c3ccc[nH]c3=O)[nH]c3ccc(C(=O)NCCCN4CCOCC4)cc23)cc1` [Compound 79, 3-(4-ethoxyphenyl)-N-(3-morpholin-4-ylpropyl)-2-(2-oxo-1,2-dihydropyridin-3-yl)-1H-indole-5-carboxamide], the melting point is 143 to 145 °C. The inhibition at 10 µM with DLD-1 was 80 to 100%. In the series on KATO III, the inhibition at 10 µM fell in the range of 80 to 100%. Moreover, the inhibition at 10 µM in the series with MDA-MB-231 lay within 80 to 100%. Also, the inhibition at 10 µM with NCI-H1299 lay within 80 to 100%. Besides, the inhibition at 30 µM on IGF-1R was 80 to 100%.

For the compound `O=c1[nH]cccc1-c1[nH]c2ccccc2c1-c1ccccc1` [Compound 84, 3-(3-phenyl-1H-indol-2-yl)pyridin-2(1H)-one], the melting point is 240 to 242 °C. Also, in the series on DLD-1, the inhibition at 10 µM lay within 50 to 79%. For the same compound, the inhibition at 10 µM in the series with KATO III was 80 to 100%. Also, in the series with MDA-MB-231, the inhibition at 10 µM is 50 to 79%. The inhibition at 10 µM with NCI-H1299 lay within 50 to 79%. Moreover, at IGF-1R, the inhibition at 30 µM is 80 to 100%.

In the case of `O=c1[nH]cccc1-c1[nH]c2ccccc2c1C1CCN(Cc2cccc3ccccc23)CC1` [Compound 88, 3-{3-[1-(1-naphthylmethyl)piperidin-4-yl]-1H-indol-2-yl}pyridin-2(1H)-one], the melting point lay within 205 to 206 °C. In addition, the inhibition at 10 µM in the series on DLD-1 fell in the range of 80 to 100%. In addition, the inhibition at 10 µM in the series on KATO III is less than 50%. Besides, the inhibition at 10 µM in the series on MDA-MB-231 was 80 to 100%. Moreover, the inhibition at 10 µM in the series on NCI-H1299 is less than 50%. Besides, at IGF-1R, the inhibition at 30 µM is less than 50%.
